Data as given in ChEMBL document CHEMBL2073820, “Rifamycin SV and rifampicin exhibit differential inhibition of the hepatic rat organic anion transporting polypeptides, Oatp1 and Oatp2” (Hepatology, 2000).

How the values were obtained:
[1] = biological target: T1, Solute carrier organic anion transporter family member 1A4 (Rattus norvegicus, UniProt O35913); experiment: (§1) TP_TRANSPORTER: inhibition of E217betaG uptake in Xenopus laevis oocytes; type: functional, cell-based, Oocyte
T1 sequence (O35913 whole entry): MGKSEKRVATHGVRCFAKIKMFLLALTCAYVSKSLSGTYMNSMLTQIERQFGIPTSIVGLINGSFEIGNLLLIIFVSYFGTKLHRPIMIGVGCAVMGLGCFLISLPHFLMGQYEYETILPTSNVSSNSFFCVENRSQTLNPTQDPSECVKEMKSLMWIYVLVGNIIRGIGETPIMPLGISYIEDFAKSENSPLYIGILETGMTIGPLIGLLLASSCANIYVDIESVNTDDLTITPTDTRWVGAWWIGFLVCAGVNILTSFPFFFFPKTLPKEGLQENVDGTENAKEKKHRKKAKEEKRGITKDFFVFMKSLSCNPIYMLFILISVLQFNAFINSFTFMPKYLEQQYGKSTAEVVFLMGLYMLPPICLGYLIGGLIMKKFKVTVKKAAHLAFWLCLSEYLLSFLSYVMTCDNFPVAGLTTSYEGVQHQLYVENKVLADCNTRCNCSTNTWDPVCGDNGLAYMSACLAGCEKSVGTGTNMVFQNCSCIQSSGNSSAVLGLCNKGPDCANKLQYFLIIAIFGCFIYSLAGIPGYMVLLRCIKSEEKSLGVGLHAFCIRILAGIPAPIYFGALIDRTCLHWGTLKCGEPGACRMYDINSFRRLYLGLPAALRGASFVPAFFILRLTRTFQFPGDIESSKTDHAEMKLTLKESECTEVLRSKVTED

[2] = biological target: T2, Solute carrier organic anion transporter family member 1A1 (Rattus norvegicus, UniProt P46720); experiment: as §1; type: functional, cell-based, Oocyte
T2 sequence (P46720 whole entry): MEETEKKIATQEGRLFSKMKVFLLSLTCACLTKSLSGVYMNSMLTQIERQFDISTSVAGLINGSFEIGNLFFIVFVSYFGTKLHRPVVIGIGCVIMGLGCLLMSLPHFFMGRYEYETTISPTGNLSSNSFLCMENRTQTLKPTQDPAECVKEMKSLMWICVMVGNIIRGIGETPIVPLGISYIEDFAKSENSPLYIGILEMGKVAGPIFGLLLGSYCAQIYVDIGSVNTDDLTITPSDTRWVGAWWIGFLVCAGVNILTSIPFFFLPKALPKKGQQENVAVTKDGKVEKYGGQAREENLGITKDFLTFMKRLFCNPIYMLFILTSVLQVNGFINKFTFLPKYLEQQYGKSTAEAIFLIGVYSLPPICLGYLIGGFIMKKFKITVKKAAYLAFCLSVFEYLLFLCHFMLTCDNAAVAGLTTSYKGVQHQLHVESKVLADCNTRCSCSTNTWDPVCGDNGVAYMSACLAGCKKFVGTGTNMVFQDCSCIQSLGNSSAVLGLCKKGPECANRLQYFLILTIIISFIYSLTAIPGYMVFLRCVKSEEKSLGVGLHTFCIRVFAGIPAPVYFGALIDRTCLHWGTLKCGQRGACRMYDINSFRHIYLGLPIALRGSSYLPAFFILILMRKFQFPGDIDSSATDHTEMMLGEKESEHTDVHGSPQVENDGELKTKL

Compound	Ki [1] [µM]	Ki [2] [µM]
CO[C@H]1/C=C/O[C@@]2(C)Oc3c(C)c(O)c4c(O)c(cc(O)c4c3C2=O)NC(=O)/C(C)=C\C=C\[C@H](C)[C@H](O)[C@@H](C)[C@@H](O)[C@@H](C)[C@H](OC(C)=O)[C@@H]1C [RIFAMYCIN]	7.3	6.6
CO[C@H]1/C=C/O[C@@]2(C)Oc3c(C)c(O)c4c(O)c(c(/C=N/N5CCN(C)CC5)c(O)c4c3C2=O)NC(=O)/C(C)=C\C=C\[C@H](C)[C@H](O)[C@@H](C)[C@@H](O)[C@@H](C)[C@H](OC(C)=O)[C@@H]1C [RIFAMPIN]	1.4	
